Laboratory results: ChEMBL document CHEMBL1240349, “Influence of tigecycline on expression of virulence factors in biofilm-associated cells of methicillin-resistant Staphylococcus aureus” (2010)

Columns and labels:
Format in all cases: functional
Staphylococcus aureus [1] = assay: Increase in rplD gene expression in biofilm-associated cells of epidemic methicillin-resistant Staphylococcus aureus isolate 16 at 4 times MIC incubated for 1 hr by whole genome microarray relative to untreated control
Staphylococcus aureus [2] = assay: Decrease in capG gene expression in biofilm-associated cells of epidemic methicillin-resistant Staphylococcus aureus isolate 16 at 4 times MIC incubated for 1 hr by whole genome microarray relative to untreated control
Staphylococcus aureus [3] = assay: Decrease in capC gene expression in biofilm-associated cells of epidemic methicillin-resistant Staphylococcus aureus isolate 16 at 4 times MIC incubated for 1 hr by whole genome microarray relative to untreated control
Staphylococcus aureus [4] = assay: Increase in recU gene expression in biofilm-associated cells of epidemic methicillin-resistant Staphylococcus aureus isolate 16 at 4 times MIC incubated for 1 hr by whole genome microarray relative to untreated control
Staphylococcus aureus [5] = assay: Decrease in capF gene expression in biofilm-associated cells of epidemic methicillin-resistant Staphylococcus aureus isolate 16 at 4 times MIC incubated for 1 hr by whole genome microarray relative to untreated control
Staphylococcus aureus [6] = assay: Decrease in capG expression in biofilm-associated cells of epidemic methicillin-resistant Staphylococcus aureus isolate 16-2 at 4 times MIC incubated for 1 hr by RT-PCR relative to untreated control
Staphylococcus aureus [7] = assay: Increase in mnhG expression in biofilm-associated cells of epidemic methicillin-resistant Staphylococcus aureus isolate 16-1 at 4 times MIC incubated for 1 hr by RT-PCR relative to untreated control
Staphylococcus aureus [8] = assay: Decrease in capG expression in biofilm-associated cells of epidemic methicillin-resistant Staphylococcus aureus isolate 16-1 at 4 times MIC incubated for 1 hr by RT-PCR relative to untreated control
Staphylococcus aureus [9] = assay: Increase in dltB gene expression in biofilm-associated cells of epidemic methicillin-resistant Staphylococcus aureus isolate 16 at 4 times MIC incubated for 1 hr by whole genome microarray relative to untreated control
Staphylococcus aureus [10] = assay: Increase in infA gene expression in biofilm-associated cells of epidemic methicillin-resistant Staphylococcus aureus isolate 16 at 4 times MIC incubated for 1 hr by whole genome microarray relative to untreated control
Staphylococcus aureus [11] = assay: Increase in rpmI gene expression in biofilm-associated cells of epidemic methicillin-resistant Staphylococcus aureus isolate 16 at 4 times MIC incubated for 1 hr by whole genome microarray relative to untreated control
Staphylococcus aureus [12] = assay: Increase in rplC gene expression in biofilm-associated cells of epidemic methicillin-resistant Staphylococcus aureus isolate 16 at 4 times MIC incubated for 1 hr by whole genome microarray relative to untreated control
Staphylococcus aureus [13] = assay: Increase in mnhG gene expression in biofilm-associated cells of epidemic methicillin-resistant Staphylococcus aureus isolate 16 at 4 times MIC incubated for 1 hr by RT-PCR relative to untreated control
Staphylococcus aureus [14] = assay: Increase in rplJ gene expression in biofilm-associated cells of epidemic methicillin-resistant Staphylococcus aureus isolate 16 at 4 times MIC incubated for 1 hr by whole genome microarray relative to untreated control
Staphylococcus aureus [15] = assay: Decrease in capG expression in biofilm-associated cells of epidemic methicillin-resistant Staphylococcus aureus isolate 15 at 4 times MIC incubated for 1 hr by RT-PCR relative to untreated control
Staphylococcus aureus [16] = assay: Increase in cna gene expression in biofilm-associated cells of epidemic methicillin-resistant Staphylococcus aureus isolate 16 at 4 times MIC incubated for 1 hr by whole genome microarray relative to untreated control
Staphylococcus aureus [17] = assay: Increase in dnaG gene expression in biofilm-associated cells of epidemic methicillin-resistant Staphylococcus aureus isolate 16 at 4 times MIC incubated for 1 hr by whole genome microarray relative to untreated control
Staphylococcus aureus [18] = assay: Increase in mnhE gene expression in biofilm-associated cells of epidemic methicillin-resistant Staphylococcus aureus isolate 16 at 4 times MIC incubated for 1 hr by whole genome microarray relative to untreated control
Staphylococcus aureus [19] = assay: Increase in fnbB expression in biofilm-associated cells of epidemic methicillin-resistant Staphylococcus aureus isolate 16-1 at 4 times MIC incubated for 1 hr by RT-PCR relative to untreated control
Staphylococcus aureus [20] = assay: Decrease in tst gene expression in biofilm-associated cells of epidemic methicillin-resistant Staphylococcus aureus isolate 16 at 4 times MIC incubated for 1 hr by RT-PCR relative to untreated control
Staphylococcus aureus [21] = assay: Increase in isaA gene expression in biofilm-associated cells of epidemic methicillin-resistant Staphylococcus aureus isolate 16 at 4 times MIC incubated for 1 hr by RT-PCR relative to untreated control
Staphylococcus aureus [22] = assay: Decrease in sasF expression in biofilm-associated cells of epidemic methicillin-resistant Staphylococcus aureus isolate 15 at 4 times MIC incubated for 1 hr by RT-PCR relative to untreated control
Staphylococcus aureus [23] = assay: Increase in fnbB gene expression in biofilm-associated cells of epidemic methicillin-resistant Staphylococcus aureus isolate 16 at 4 times MIC incubated for 1 hr by RT-PCR relative to untreated control
Staphylococcus aureus [24] = assay: Decrease in capC expression in biofilm-associated cells of epidemic methicillin-resistant Staphylococcus aureus isolate 16-2 at 4 times MIC incubated for 1 hr by RT-PCR relative to untreated control
Staphylococcus aureus [25] = assay: Increase in clfB gene expression in biofilm-associated cells of epidemic methicillin-resistant Staphylococcus aureus isolate 16 at 4 times MIC incubated for 1 hr by whole genome microarray relative to untreated control
Staphylococcus aureus [26] = assay: Decrease in dinR gene expression in biofilm-associated cells of epidemic methicillin-resistant Staphylococcus aureus isolate 16 at 4 times MIC incubated for 1 hr by whole genome microarray relative to untreated control
Staphylococcus aureus [27] = assay: Increase in sarA gene expression in biofilm-associated cells of epidemic methicillin-resistant Staphylococcus aureus isolate 16 at 4 times MIC incubated for 1 hr by whole genome microarray relative to untreated control
Staphylococcus aureus [28] = assay: Decrease in clpC expression in biofilm-associated cells of epidemic methicillin-resistant Staphylococcus aureus isolate 15 at 4 times MIC incubated for 1 hr by RT-PCR relative to untreated control
Staphylococcus aureus [29] = assay: Decrease in capC expression in biofilm-associated cells of epidemic methicillin-resistant Staphylococcus aureus isolate 16-1 at 4 times MIC incubated for 1 hr by RT-PCR relative to untreated control
Staphylococcus aureus [30] = assay: Increase in cna expression in biofilm-associated cells of epidemic methicillin-resistant Staphylococcus aureus isolate 16-2 at 4 times MIC incubated for 1 hr by RT-PCR relative to untreated control
Staphylococcus aureus [31] = assay: Increase in clfB expression in biofilm-associated cells of epidemic methicillin-resistant Staphylococcus aureus isolate 16-1 at 4 times MIC incubated for 1 hr by RT-PCR relative to untreated control
Staphylococcus aureus [32] = assay: Increase in gapR gene expression in biofilm-associated cells of epidemic methicillin-resistant Staphylococcus aureus isolate 16 at 4 times MIC incubated for 1 hr by whole genome microarray relative to untreated control
Staphylococcus aureus [33] = assay: Decrease in capC expression in biofilm-associated cells of epidemic methicillin-resistant Staphylococcus aureus isolate 15 at 4 times MIC incubated for 1 hr by RT-PCR relative to untreated control
Staphylococcus aureus [34] = assay: Decrease in sdrD gene expression in biofilm-associated cells of epidemic methicillin-resistant Staphylococcus aureus isolate 16 at 4 times MIC incubated for 1 hr by whole genome microarray relative to untreated control

Question: What does the source list for CN(C)c1cc(NC(=O)CNC(C)(C)C)c(O)c2c1C[C@H]1C[C@H]3[C@H](N(C)C)C(O)=C(C(N)=O)C(=O)[C@@]3(O)C(O)=C1C2=O [TIGECYCLINE]?
Answer: fold change (FC) (Staphylococcus aureus [1]): 13.06; fold change (FC) (Staphylococcus aureus [2]): 2.3; fold change (FC) (Staphylococcus aureus [3]): 3.14; fold change (FC) (Staphylococcus aureus [4]): 4.38; fold change (FC) (Staphylococcus aureus [5]): 2.66; fold change (FC) (Staphylococcus aureus [6]): 1.96; fold change (FC) (Staphylococcus aureus [7]): 5.16; fold change (FC) (Staphylococcus aureus [8]): 1.01; fold change (FC) (Staphylococcus aureus [9]): 2.02; fold change (FC) (Staphylococcus aureus [10]): 4.77; fold change (FC) (Staphylococcus aureus [11]): 10.51; fold change (FC) (Staphylococcus aureus [12]): 12.06; fold change (FC) (Staphylococcus aureus [13]): 5.16; fold change (FC) (Staphylococcus aureus [14]): 12.75; fold change (FC) (Staphylococcus aureus [15]): 1.58; fold change (FC) (Staphylococcus aureus [16]): 2.1; fold change (FC) (Staphylococcus aureus [17]): 2.19; fold change (FC) (Staphylococcus aureus [18]): 3.15; fold change (FC) (Staphylococcus aureus [19]): 3.03; fold change (FC) (Staphylococcus aureus [20]): 1.51; fold change (FC) (Staphylococcus aureus [21]): 7.68; fold change (FC) (Staphylococcus aureus [22]): 1.86; fold change (FC) (Staphylococcus aureus [23]): 3.03; fold change (FC) (Staphylococcus aureus [24]): 1.09; fold change (FC) (Staphylococcus aureus [25]): 4; fold change (FC) (Staphylococcus aureus [26]): 3.31; fold change (FC) (Staphylococcus aureus [27]): 2.37; fold change (FC) (Staphylococcus aureus [28]): 1.23; fold change (FC) (Staphylococcus aureus [29]): 1.75; fold change (FC) (Staphylococcus aureus [30]): 1.2; fold change (FC) (Staphylococcus aureus [31]): 7.5; fold change (FC) (Staphylococcus aureus [32]): 9.12; fold change (FC) (Staphylococcus aureus [33]): 1.64; fold change (FC) (Staphylococcus aureus [34]): 2.46
